According to patent US20260241046A1, “PROSTATE-SPECIFIC MEMBRANE ANTIGEN RECEPTOR-TARGETING RADIOPHARMACEUTICALS AND USES THEREOF” (Nuclidium AG, priority 2024, published 2026):
“Also recorded” adds a separate entry of the source.

Legend:
LNCaP cells = assay: In vitro cellular uptake and internalization; type: cell-based, human; settings: for Cell surface fraction / Internalised fraction / Total uptake: % of total applied activity
Description: The cellular uptake of [^61Cu]Cu-NODAGA-PSMA I&T was studied in vitro using intact LNCaP cells seeded overnight in 6-well plates. On the day of the experiment, the cells were washed and incubated with [^61Cu]Cu-NODAGA-PSMA I&T at different time points, either alone or in the presence of 2-PMPA (10 μM) as a blocking agent, to distinguish between specific and non-specific uptake. At each investigated time point, the medium containing the unbound (free) [^61Cu]Cu-NODAGA-PSMA I&T was removed, followed by two washing steps with ice-cold phosphate-buffered saline. The cells were then treated for 2×5 min with ice-cold glycine solution (0.05 M, pH 2.8) to detach the cell surface-bound tracer (acid released). Afterwards, the cells containing the internalized [^61Cu]Cu-NODAGA-PSMA I&T were detached with 1 M sodium hydroxide at 37° C. and collected for measurement. The specific cell surface-bound and internalized tracer was expressed as a percentage of the total applied activity after subtracting the non-specific values. The results are presented in Table 23 as a mean value (n=3±standard deviation).

LNCaP xenografted mice = assay: Biodistribution studies in LNCaP xenografted mice; type: in vivo
Description: Unless otherwise specified, the in vivo studies were performed on athymic nude Foxn1^nu 4-6-week-old mice. Animals were injected in the shoulder with LNCaP cells (10^7 cells/200 μL) suspended in 1:1 (v: v) EMEM EBS medium and Matrigel. The in vivo experiments were performed when tumors reached a volume between 100-500 mm^3. At the intervention, all mice were between 7 and 11 weeks old. All animal experiments were performed following the guidelines for the use of living animals in scientific studies and the Swiss regulations for the protection of animals.
Quantitative biodistribution studies were performed on LNCaP xenografted mice to determine the distribution of [^61Cu]Cu-NODAGA-PSMA I&T following i.v. injection into the tail vein. The dose of the administered radiopharmaceutical was between 1.5-3.5 MBq ([…]) diluted to 100 μL with saline solution. The mice were divided into two groups of eight (5 males and 3 females) and euthanized at 1- and 4-hours post-injection. The organs of interest were then collected, rinsed, blotted, weighed, and analyzed in a gamma counter. The results were expressed as the percentage of injected activity per gram of tissue (% IA/g) and reported as mean±standard deviation in Table 25.

PSMA-expressing tumors = target: T1, PSMA-expressing tumors (Homo sapiens, UniProt Q04609); assay: First-in-human PET/CT study; type: in vivo; settings: 104 MBq i.v., imaging at 3 hours, patient with metastatic prostate cancer
T1 construct: administered intravenously to a patient with known metastatic prostate cancer; from tissue; host or cells: osseous and hepatic metastases of a patient with metastatic prostate cancer
T1 sequence (Q04609 whole entry): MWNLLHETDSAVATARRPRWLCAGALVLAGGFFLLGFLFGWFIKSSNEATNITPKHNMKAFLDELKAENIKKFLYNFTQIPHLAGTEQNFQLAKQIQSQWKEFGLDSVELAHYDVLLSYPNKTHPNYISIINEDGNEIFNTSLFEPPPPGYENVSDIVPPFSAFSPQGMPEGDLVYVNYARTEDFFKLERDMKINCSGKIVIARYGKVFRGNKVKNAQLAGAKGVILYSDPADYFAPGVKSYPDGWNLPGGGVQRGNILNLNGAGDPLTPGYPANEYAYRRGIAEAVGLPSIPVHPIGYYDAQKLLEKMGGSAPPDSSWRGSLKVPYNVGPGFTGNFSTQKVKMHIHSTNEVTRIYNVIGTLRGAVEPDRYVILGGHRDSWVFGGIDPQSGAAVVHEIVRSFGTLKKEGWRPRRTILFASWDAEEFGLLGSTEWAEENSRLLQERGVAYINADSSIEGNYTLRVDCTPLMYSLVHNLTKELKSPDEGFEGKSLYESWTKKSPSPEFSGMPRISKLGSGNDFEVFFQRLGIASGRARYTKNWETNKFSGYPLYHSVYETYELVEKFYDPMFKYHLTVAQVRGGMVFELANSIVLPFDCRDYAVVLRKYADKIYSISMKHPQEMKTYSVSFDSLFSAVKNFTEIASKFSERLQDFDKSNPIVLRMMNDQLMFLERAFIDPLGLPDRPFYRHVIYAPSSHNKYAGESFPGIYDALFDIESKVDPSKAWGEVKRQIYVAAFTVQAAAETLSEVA
Description: A [^61Cu]Cu-NODAGA-PSMA I&T dose of 104 MBq (2.81 mCi) was administered intravenously to a patient with known metastatic prostate cancer. The patient was co-injected with 10 mg furosemide (Lasix®, Sanofi-Aventis, Frankfurt, Germany).
Imaging was performed at 3 hours following radiotracer administration on a Biograph Vision 600 (Siemens, Germany) PET/CT scanner. Images were obtained from the skull to mid-thigh and reconstructed into multiplanar PT, CT, and fused PET/CT images. CT was used for attenuation correction.

PSMA-expressing tissues = test system: PSMA-expressing tissues
Description: The specificity of [^61Cu]Cu-NODAGA-PSMA I&T for PSMA-expressing tissues was evaluated in LNCaP xenograft mice through a blocking study. The mice were first administered with 1.3 μmol (300 μg) of 2-PMPA as a blocking agent, followed by an intravenous injection of 4-8 MBq ([…]) [^61Cu]Cu-NODAGA-PSMA I&T diluted to 100 μL in saline in the tail vein. The animals (n=4) were sacrificed 1 hour post-injection, and the organs were collected, weighed and counted in a gamma counter as already described. The results are expressed as a percentage of injected activity per gram (% IA/g) as presented in Table 27 and are compared with the results obtained from biodistribution studies.
PET/CT imaging was also performed at 1 hour post-injection.

## O=C([O-])CN1CCN(CC(=O)[O-])CCN([C@H](CCC(=O)N[C@H](Cc2ccc(O)c(I)c2)C(=O)N[C@H](Cc2ccccc2)C(=O)N[C@H](CCCCNC(=O)CCCCCCC(=O)NCCCC[C@H](NC(=O)N[C@@H](CCC(=O)O)C(=O)O)C(=O)O)C(=O)O)C(=O)O)CC1.[61Cu+2] [[^61Cu]Cu-NODAGA-PSMA I&T]
LNCaP cells
  time over which the radiotracer was continuously internalized: up to 120 minutes
LNCaP cells; 5 min
  Cell surface fraction: 4.3 ± 0.7%
  Internalised fraction: 1.2 ± 0.2%
  Total uptake: 5.5 ± 0.9%
LNCaP cells; 15 min
  Cell surface fraction: 8.2 ± 1.0%
  Internalised fraction: 3.9 ± 0.4%
  Total uptake: 12.1 ± 1.4%
LNCaP cells; 30 min
  Cell surface fraction: 10.7 ± 1.0%
  Internalised fraction: 7.0 ± 1.1%
  Total uptake: 17.7 ± 2.1%
LNCaP cells; 60 min
  Cell surface fraction: 10.8 ± 1.8%
  Internalised fraction: 11.7 ± 1.6%
  Total uptake: 22.5 ± 3.4%
LNCaP cells; 120 min
  Cell surface fraction: 10.2 ± 1.8%
  Internalised fraction: 17.6 ± 2.8%
  Total uptake: 27.8 ± 4.6%
LNCaP cells; saturation of binding sites
  time of highest accumulation on the cell membrane: ≤ 30 min
LNCaP xenografted mice; 1 hour post-injection
  Biodistribution, Adrenal: 17.3±3.26 % IA/g
  Biodistribution, Blood: 0.28 ± 0.06 % IA/g
  Biodistribution, Bone: 2.73 ± 0.91 % IA/g
  Biodistribution, Heart: 0.45 ± 0.15 % IA/g
  Biodistribution, Intestine: 2.11 ± 0.78 % IA/g
  Biodistribution, Kidneys: 118±13 % IA/g
  Biodistribution, LNCaP-tumor: 14.0±5.0 % IA/g
  Biodistribution, Liver: 1.02 ± 0.28 % IA/g
  Biodistribution, Lung: 1.69 ± 0.45 % IA/g
  Biodistribution, Muscle: 1.12 ± 0.32 % IA/g
  Biodistribution, Pancreas: 0.97 ± 0.36 % IA/g
  Biodistribution, Salivary glands: 2.01±0.33 % IA/g
  Biodistribution, Spleen: 6.04±1.87 % IA/g
  Biodistribution, Stomach: 1.13 ± 0.20 % IA/g
  Tumor/Blood uptake ratio: 50
  Tumor/Kidney uptake ratio: 0.12
  Tumor/Liver uptake ratio: 14
  Tumor/Muscles uptake ratio: 13
  Tumor/Salivary gland uptake ratio: 7
LNCaP xenografted mice; 4 hours post-injection
  Biodistribution, Adrenal: 8.32±2.87 % IA/g
  Biodistribution, Blood: 0.10±0.03 % IA/g
  Biodistribution, Bone: 1.34 ± 0.48 % IA/g
  Biodistribution, Heart: 0.22 ± 0.05 % IA/g
  Biodistribution, Intestine: 1.06 ± 0.50 % IA/g
  Biodistribution, Kidneys: 91±10 % IA/g
  Biodistribution, LNCaP-tumor: 10.7±3.3 % IA/g
  Biodistribution, Liver: 0.72 ± 0.11 % IA/g
  Biodistribution, Lung: 0.74 ± 0.19 % IA/g
  Biodistribution, Muscle: 0.50 ± 0.22 % IA/g
  Biodistribution, Pancreas: 0.45 ± 0.09 % IA/g
  Biodistribution, Salivary glands: 0.52±0.06 % IA/g
  Biodistribution, Spleen: 1.28 ± 0.39 % IA/g
  Biodistribution, Stomach: 0.66 ± 0.15 % IA/g
  Tumor/Blood uptake ratio: 107
  Tumor/Kidney uptake ratio: 0.12
  Tumor/Liver uptake ratio: 15
  Tumor/Muscles uptake ratio: 21
  Tumor/Salivary gland uptake ratio: 21
PSMA-expressing tumors
  radiotracer accumulation on PET/CT: multifocal osseous (arrows) and hepatic (arrowheads) metastases; also recorded: Radiotracer accumulation was noted in multifocal osseous and hepatic metastases
PSMA-expressing tissues; 1 hour post-injection
  Biodistribution with 2-PMPA blocking, Adrenal: 0.96±0.87 % IA/g
  Biodistribution with 2-PMPA blocking, Blood: 0.44 ± 0.50 % IA/g
  Biodistribution with 2-PMPA blocking, Bone: 0.39 ± 0.24 % IA/g
  Biodistribution with 2-PMPA blocking, Heart: 0.34 ± 0.27 % IA/g
  Biodistribution with 2-PMPA blocking, Intestine: 0.87 ± 0.50 % IA/g
  Biodistribution with 2-PMPA blocking, Kidneys: 4.59±0.50 % IA/g
  Biodistribution with 2-PMPA blocking, LNCaP-tumor: 0.68±0.54 % IA/g
  Biodistribution with 2-PMPA blocking, Liver: 1.29 ± 0.53 % IA/g
  Biodistribution with 2-PMPA blocking, Lung: 0.67 ± 0.40 % IA/g
  Biodistribution with 2-PMPA blocking, Muscle: 0.32 ± 0.36 % IA/g
  Biodistribution with 2-PMPA blocking, Pancreas: 0.29 ± 0.19 % IA/g
  Biodistribution with 2-PMPA blocking, Salivary glands: 0.51 ± 0.30 % IA/g
  Biodistribution with 2-PMPA blocking, Spleen: 0.33±0.16 % IA/g
  Biodistribution with 2-PMPA blocking, Stomach: 0.62 ± 0.28 % IA/g
PSMA-expressing tissues; LNCaP xenograft mice
  in vivo stability (transchelation): stable in vivo, with limited transchelation phenomena
